Experimental data published in US20220380370A1 (Goldfinch Bio, Inc., priority 2019, published 2022).

These compounds were tested against T1, CB1 receptor (Homo sapiens, UniProt P21554) (assay: CB1 cAMP antagonist assay (LANCE Ultra cAMP kit)). Conditions: CHO cells stably expressing the CB1 receptor; forskolin and agonist CP55940 at EC90.
T1 construct: Perkin Elmer (CB1-CHO cells); host or cells: Flp-In CHO cells or CB1-CHO cells, stably expressing
Type: cell-based
Text: LANCE Ultra cAMP kit (Perkin Elmer) was used to quantitate the amount of 3′,5′-cyclic adenosine monophosphate (cAMP) produced in Flp-In CHO cells (Invitrogen) stably expressing the CB1 receptor, CB1-CHO cells (Perkin Elmer) stably expressing the CB1 receptor, or CB2-CHO cells (Perkin Elmer) stably expressing the CB2 receptor.
Forskolin was initially titrated to determine the response of the cells. The EC90 of forskolin was used for compound testing. CP55940 was titrated and used with EC90 of forskolin to determine the level of agonist stimulation. EC90 of the agonist was used for subsequent compound testing. For the CB1 assay, Forskolin (Sigma), CP55940 (Cayman Chemicals), and AM251 (MCE) were diluted in 100% DMSO, starting at 100 mM, 1 mM, and 1 mM respectively, in 3-fold serial dilutions. For the CB2 assay, Forskolin (Sigma), CP55940 (Cayman Chemicals), and AM630 (MCE) were diluted in 100% DMSO, starting at 100 mM, 1 mM, and 30 mM respectively, in 3-fold serial dilutions. Test compounds were diluted in 100% DMSO starting from 10 mM, 3-fold dilutions. The cAMP assay buffer contains 1× Hank's Buffered Saline Solution with Ca^2+ and Mg^2+ (Invitrogen), 5.3 mM HEPES (Invitrogen), 0.05% BSA, 0.5 mM IBMX (Sigma). For all assays, cells were harvested, counted, and diluted in cAMP assay buffer to 1×10^5 cells/mL. Only cells with viability >85% were used for the assay. Cells were seeded at 1000 cells/well in 384-well plates and 10 nL/well AM251 (for CB1), AM630 (for CB2) or test compound was added and incubated at 37° C. for 10 min. Then forskolin and agonist were added to reach their EC90 and incubated at 25° C. for 30 min. To detect the amount of cAMP produced, 5 μL of a 100× diluted stock of Eu-cAMP tracer and 5 μL of 200× diluted stock of Ulight-anti-cAMP were added to each well, and the plate incubated at 25° C. for 15 min. The FRET signal was read using an EnVision microplate reader (λex=320 nm, λem=615 nm and 665 nm). The results are expressed as % Inhibition, where % inhibition=100−100×(U−C2)/(C1−C2), where U is the FRET ratio (λem (665 nm)/λem (615 nm)) of sample, C1 is the average of the high controls (signal with no antagonist added), and C2 is the average of low controls (signal with the highest concentration of AM251 or AM630 antagonist). The IC50 is determined by fitting the percentage of inhibition as a function of compound concentrations with the Hill equation, using a 4-parameter fit in either XLfit or GraphPad Prism.

T1 sequence (P21554 whole entry): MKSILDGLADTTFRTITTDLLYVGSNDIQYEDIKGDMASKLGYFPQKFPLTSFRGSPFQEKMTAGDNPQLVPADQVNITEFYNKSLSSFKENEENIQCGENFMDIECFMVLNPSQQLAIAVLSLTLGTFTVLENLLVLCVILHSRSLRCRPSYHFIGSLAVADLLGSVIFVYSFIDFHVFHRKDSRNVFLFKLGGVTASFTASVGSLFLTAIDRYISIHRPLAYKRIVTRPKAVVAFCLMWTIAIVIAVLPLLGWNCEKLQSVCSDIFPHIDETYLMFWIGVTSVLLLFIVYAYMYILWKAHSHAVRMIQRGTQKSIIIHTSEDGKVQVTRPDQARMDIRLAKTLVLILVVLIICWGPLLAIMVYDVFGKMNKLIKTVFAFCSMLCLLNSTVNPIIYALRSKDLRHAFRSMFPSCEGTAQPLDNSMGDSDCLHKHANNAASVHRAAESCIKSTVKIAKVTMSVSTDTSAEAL

Structure (SMILES)	IC50 [nM]
CC(C(N)=O)n1c(=O)c2c(nc(-c3ccccc3Cl)n2-c2ccc(Cl)cc2)n(C2CCOCC2)c1=O (stereo in doubt) [Compound 138, (2R)-2-[8-(2-chlorophenyl)-7-(4-chlorophenyl)-3-(oxan-4-yl)-2,6-dioxopurin-1-yl]propanamide]	100 to 1000
NC(=O)Cn1c(=O)c2c(nc(-c3ccccc3Cl)n2-c2ccc(Cl)cc2)n(Cc2ccc(CC(O)CO)cc2)c1=O (stereo in doubt) [Compound 146, 2-[8-(2-chlorophenyl)-7-(4-chlorophenyl)-3-([4-[(2S)-2,3-dihydroxypropyl]phenyl]methyl)-2,6-dioxopurin-1-yl]acetamide]	100 to 1000
NC(=O)Cn1c(=O)c2c(nc(-c3ccccc3Cl)n2-c2ccc(Cl)cc2)n(Cc2ccc(CC(O)CO)cc2)c1=O (stereo in doubt) [Compound 148, 2-[8-(2-chlorophenyl)-7-(4-chlorophenyl)-3-([4-[(2R)-2,3-dihydroxypropyl]phenyl]methyl)-2,6-dioxopurin-1-yl]acetamide]	100 to 1000
Cn1c(=O)c2c(nc(-c3ccccc3Cl)n2-c2ccc(Cl)cc2)n(Cc2ccc(C(=O)O)cc2)c1=O [Compound 111, 4-[[8-(2-chlorophenyl)-7-(4-chlorophenyl)-1-methyl-2,6-dioxo-2,3,6,7-tetrahydro-1H-purin-3-yl]methyl]benzoic acid]	1000 to 5000
Cn1c(=O)c2c(nc(-c3ccccc3Cl)n2-c2ccc(Cl)cc2)n(CC2CCN(C[C@H](O)CO)CC2)c1=O [Compound 113, 8-(2-chlorophenyl)-7-(4-chlorophenyl)-3-([1-[(2S)-2,3-dihydroxypropyl]piperidin-4-yl]methyl)-1-methyl-2,3,6,7-tetrahydro-1H-purine-2,6-dione]	≥ 5000
Cn1c(=O)c2c(nc(-c3ccccc3Cl)n2-c2ccc(Cl)cc2)n(CC2CCN(CC(N)=O)CC2)c1=O [Compound 115, 2-(4-[[8-(2-chlorophenyl)-7-(4-chlorophenyl)-1-methyl-2,6-dioxo-2,3,6,7-tetrahydro-1H-purin-3-yl]methyl]piperidin-1-yl)acetamide]	100 to 1000
CN1CCC(Cn2c(=O)n(C)c(=O)c3c2nc(-c2ccccc2Cl)n3-c2ccc(Cl)cc2)CC1 [Compound 116, 8-(2-chlorophenyl)-7-(4-chlorophenyl)-1-methyl-3-[(1-methylpiperidin-4-yl)methyl]-2,3,6,7-tetrahydro-1H-purine-2,6-dione]	≥ 5000
NC(=O)Cn1c(=O)c2c(nc(-c3ccccc3Cl)n2-c2ccc(Cl)cc2)n(CC2CCN(CCO)CC2)c1=O [Compound 117]	≥ 5000
CN1CCN(Cc2ccc(Cn3c(=O)n(CC(N)=O)c(=O)c4c3nc(-c3ccccc3Cl)n4-c3ccc(Cl)cc3)cc2)CC1 [Compound 118]	1000 to 5000
CN(CCO)Cc1ccc(Cn2c(=O)n(C)c(=O)c3c2nc(-c2ccccc2Cl)n3-c2ccc(Cl)cc2)cc1 [Compound 120]	100 to 1000
CC(=O)N1CCC(Cn2c(=O)n(CC(N)=O)c(=O)c3c2nc(-c2ccccc2Cl)n3-c2ccc(Cl)cc2)CC1 [Compound 123, 2-[3-[(1-acetylpiperidin-4-yl)methyl]-8-(2-chlorophenyl)-7-(4-chlorophenyl)-2,6-dioxopurin-1-yl]acetamide]	100 to 1000
CN(CCO)C(=O)c1ccc(Cn2c(=O)n(C)c(=O)c3c2nc(-c2ccccc2Cl)n3-c2ccc(Cl)cc2)cc1 [Compound 126]	100 to 1000
CC(=O)N1CCC(Cn2c(=O)n(C(C)C(N)=O)c(=O)c3c2nc(-c2ccccc2Cl)n3-c2ccc(Cl)cc2)CC1 (stereo not shown) [Compound 129, 2-[3-[(1-acetylpiperidin-4-yl)methyl]-8-(2-chlorophenyl)-7-(4-chlorophenyl)-2,6-dioxopurin-1-yl]propanamide]	100 to 1000

Now from value to compound:

IC50 [nM]	Structure (SMILES)
< 100	NC(=O)Cn1c(=O)c2c(nc(-c3ccccc3Cl)n2-c2ccc(Cl)cc2)n(CC2COCCO2)c1=O (racemic) [Compound 124, 2-[8-(2-chlorophenyl)-7-(4-chlorophenyl)-3-(1,4-dioxan-2-ylmethyl)-2,6-dioxopurin-1-yl]acetamide]
100 to 1000	NC(=O)Cn1c(=O)c2c(nc(-c3ccccc3Cl)n2-c2ccc(Cl)cc2)n(CC2COCCO2)c1=O (stereo in doubt) [Compound 127, 2-[8-(2-chlorophenyl)-7-(4-chlorophenyl)-3-[(2R)-1,4-dioxan-2-ylmethyl]-2,6-dioxopurin-1-yl]acetamide]
100 to 1000	NC(=O)Cn1c(=O)c2c(nc(-c3ccccc3Cl)n2-c2ccc(Cl)cc2)n(CC2COCCO2)c1=O (stereo in doubt) [Compound 128, 2-[8-(2-chlorophenyl)-7-(4-chlorophenyl)-3-[(2S)-1,4-dioxan-2-ylmethyl]-2,6-dioxopurin-1-yl]acetamide]
100 to 1000	CC(c1ccc(C(=O)NCCO)cc1)n1c(=O)n(C)c(=O)c2c1nc(-c1ccccc1Cl)n2-c1ccc(Cl)cc1 (stereo in doubt) [Compound 134, 4-[(1R)-1-[8-(2-chlorophenyl)-7-(4-chlorophenyl)-1-methyl-2,6-dioxopurin-3-yl]ethyl]-N-(2-hydroxyethyl)benzamide]
< 100	CC(C(N)=O)n1c(=O)c2c(nc(-c3ccccc3Cl)n2-c2ccc(Cl)cc2)n(CC2CCOCC2)c1=O (stereo in doubt) [Compound 140, (2S)-2-[8-(2-chlorophenyl)-7-(4-chlorophenyl)-3-(oxan-4-ylmethyl)-2,6-dioxopurin-1-yl]propanamide]
< 100	CC(C(N)=O)n1c(=O)c2c(nc(-c3ccccc3Cl)n2-c2ccc(Cl)cc2)n(CC2CCS(=O)(=O)CC2)c1=O (stereo in doubt) [Compound 142, (2S)-2-[8-(2-chlorophenyl)-7-(4-chlorophenyl)-3-[(1,1-dioxo-1 lambda6-thian-4-yl)methyl]-2,6-dioxopurin-1-yl]propanamide]
< 100	CC(C(N)=O)n1c(=O)c2c(nc(-c3ccccc3Cl)n2-c2ccc(Cl)cc2)n(CC2CCS(=O)(=O)CC2)c1=O (stereo in doubt) [Compound 144, (2R)-2-[8-(2-chlorophenyl)-7-(4-chlorophenyl)-3-[(1,1-dioxo-1 lambda6-thian-4-yl)methyl]-2,6-dioxopurin-1-yl]propanamide]
< 100	CC(C)(C)C(=O)OCn1c(=O)c2c(nc(-c3ccccc3Cl)n2-c2ccc(Cl)cc2)n(C2CCCCC2)c1=O [Compound 102]
< 100	CC(=O)N1CCC(Cn2c(=O)n(C)c(=O)c3c2nc(-c2ccccc2Cl)n3-c2ccc(Cl)cc2)CC1 [Compound 107, 3-[(1-acetylpiperidin-4-yl)methyl]-8-(2-chlorophenyl)-7-(4-chlorophenyl)-1-methylpurine-2,6-dione]
< 100	COC(=O)c1ccc(Cn2c(=O)n(C)c(=O)c3c2nc(-c2ccccc2Cl)n3-c2ccc(Cl)cc2)cc1 [Compound 108]
< 100	Cn1c(=O)c2c(nc(-c3ccccc3Cl)n2-c2ccc(Cl)cc2)n(Cc2ccc(Cl)cc2)c1=O [Compound 109, 8-(2-chlorophenyl)-7-(4-chlorophenyl)-3-[(4-chlorophenyl)methyl]-1-methyl-2,3,6,7-tetrahydro-1H-purine-2,6-dione]
< 100	Cn1c(=O)c2c(nc(-c3ccccc3Cl)n2-c2ccc(Cl)cc2)n(CC2CCCCC2)c1=O [Compound 110, 8-(2-chlorophenyl)-7-(4-chlorophenyl)-3-(cyclohexylmethyl)-1-methyl-2,3,6,7-tetrahydro-1H-purine-2,6-dione]
< 100	O=c1[nH]c(=O)n(Cc2ccc(Cl)cc2)c2nc(-c3ccccc3Cl)n(-c3ccc(Cl)cc3)c12 [Compound 119, 8-(2-chlorophenyl)-7-(4-chlorophenyl)-3-[(4-chlorophenyl)methyl]-2,3,6,7-tetrahydro-1H-purine-2,6-dione]
< 100	NC(=O)Cn1c(=O)c2c(nc(-c3ccccc3Cl)n2-c2ccc(Cl)cc2)n(Cc2ccc(CN3CCOCC3)cc2)c1=O [Compound 121, 2-[8-(2-chlorophenyl)-7-(4-chlorophenyl)-3-([4-[(morpholin-4-yl)methyl]phenyl]methyl)-2,6-dioxo-2,3,6,7-tetrahydro-1H-purin-1-yl]acetamide]
< 100	COCCOCc1ccc(Cn2c(=O)n(C)c(=O)c3c2nc(-c2ccccc2Cl)n3-c2ccc(Cl)cc2)cc1 [Compound 122, 8-(2-chlorophenyl)-7-(4-chlorophenyl)-3-([4-[(2-methoxyethoxy)methyl]phenyl]methyl)-1-methylpurine-2,6-dione]
